The source of these data is PubChem BioAssay AID1259407 (Chemical Carcinogenesis Research Information System (CCRIS), 2018).

Structures are written as SMILES. Calls of active or inactive are those of the source. The rule behind the calls is not given here.

The series relates to CCRIS mutagenicity, Ames/micronucleus/aberration tests. The experiment in a line: CCRIS mutagenicity studies.
Where [1] appears, read: Test System: AMES SALMONELLA TYPHIMURIUM, Strain/Indicator: TA100, Metabolic Activation: RAT, LIVER, S-9, AROCLOR 1254, Method: PREINCUBATION

For the compound `CN(N=O)c1ccccc1`, the mutagenic call (Test System: AMES SALMONELLA TYPHIMURIUM, Strain/Indicator: HISG428, Metabolic Activation: RAT, LIVER, S-9, AROCLOR 1254, Method: PREINCUBATION) is “inactive; negative”; the mutagenic call under setting [1] is “active; positive”; the mutagenic call (Test System: AMES SALMONELLA TYPHIMURIUM, Strain/Indicator: TA104, Metabolic Activation: RAT, LIVER, S-9, AROCLOR 1254, Method: PREINCUBATION) is “active; positive”; the mutagenic call (Test System: AMES SALMONELLA TYPHIMURIUM, Strain/Indicator: TA1537, Metabolic Activation: RAT, LIVER, S-9, PHENOBARBITAL, Method: STANDARD PLATE) was “inactive; negative”; the mutagenic call (Test System: AMES SALMONELLA TYPHIMURIUM, Strain/Indicator: TA1537, Metabolic Activation: RAT, LIVER, S-9, PYRAZOLE, Method: STANDARD PLATE) was “active; positive”; the mutagenic call (Test System: AMES SALMONELLA TYPHIMURIUM, Strain/Indicator: TA1537, Metabolic Activation: RAT, LIVER, S-9, Method: LIQUID INCUBATION) is “active; positive”. Also, the mutagenic call is “active; positive” (Test System: AMES SALMONELLA TYPHIMURIUM, Strain/Indicator: TA2638, Metabolic Activation: RAT, LIVER, S-9, AROCLOR 1254, Method: PREINCUBATION); “inactive; negative” (Test System: AMES SALMONELLA TYPHIMURIUM, Strain/Indicator: TA2659, Metabolic Activation: RAT, LIVER, S-9, AROCLOR 1254, Method: PREINCUBATION); “active; positive” (Test System: AMES SALMONELLA TYPHIMURIUM, Strain/Indicator: YG7108-2A6-OR, Metabolic Activation: NONE, Method: PREINCUBATION); “active; positive” (Test System: AMES SALMONELLA TYPHIMURIUM, Strain/Indicator: YG7108-2A6, Metabolic Activation: NONE, Method: PREINCUBATION); “inactive; negative” (Test System: AMES SALMONELLA TYPHIMURIUM, Strain/Indicator: YG7108-PCW, Metabolic Activation: NONE, Method: PREINCUBATION); “inactive; negative” (Test System: AMES SALMONELLA TYPHIMURIUM, Strain/Indicator: YG7108, Metabolic Activation: RAT LIVER S-9, PHENOBARBITAL AND 5,6-BENZOFLAVONE, Method: PREINCUBATION).

Take `Nc1ccc(N)c2c1C(=O)c1c(N)ccc(N)c1C2=O`: the mutagenic call by setting is: (End Point: IN VITRO CHROMOSOMAL ABERRATIONS, Test System: CHO CELLS, Metabolic Activation: NONE) “active; positive”; (End Point: IN VITRO CHROMOSOMAL ABERRATIONS, Test System: CHO CELLS, Metabolic Activation: RAT, LIVER, S-9, AROCLOR 1254) “active; positive”; (Test System: AMES SALMONELLA TYPHIMURIUM, Strain/Indicator: TA97, Metabolic Activation: HAMSTER, LIVER, S-9, AROCLOR 1254 (10%), Method: PREINCUBATION) “inactive; negative”; (Test System: AMES SALMONELLA TYPHIMURIUM, Strain/Indicator: TA97, Metabolic Activation: HAMSTER, LIVER, S-9, AROCLOR 1254, Method: PREINCUBATION) “active; positive”; (Test System: AMES SALMONELLA TYPHIMURIUM, Strain/Indicator: TA97, Metabolic Activation: NONE, Method: PREINCUBATION) “active; positive”; (Test System: AMES SALMONELLA TYPHIMURIUM, Strain/Indicator: TA97, Metabolic Activation: RAT, LIVER, S-9, AROCLOR 1254 (10%), Method: PREINCUBATION) “inactive; negative”. Further, the mutagenic call was “active; positive” (Test System: AMES SALMONELLA TYPHIMURIUM, Strain/Indicator: TA97, Metabolic Activation: RAT, LIVER, S-9, AROCLOR 1254, Method: PREINCUBATION); “active; positive” (Test System: AMES SALMONELLA TYPHIMURIUM, Strain/Indicator: TA98, Metabolic Activation: HAMSTER, LIVER, S-9, AROCLOR 1254 (10%), Method: PREINCUBATION); “active; positive” (Test System: AMES SALMONELLA TYPHIMURIUM, Strain/Indicator: TA98, Metabolic Activation: HAMSTER, LIVER, S-9, AROCLOR 1254, Method: PREINCUBATION); “active; positive” (Test System: AMES SALMONELLA TYPHIMURIUM, Strain/Indicator: TA98, Metabolic Activation: NONE, Method: PREINCUBATION); “inactive; negative” (Test System: AMES SALMONELLA TYPHIMURIUM, Strain/Indicator: TA98, Metabolic Activation: NONE, Method: STANDARD PLATE); “active; positive” (Test System: AMES SALMONELLA TYPHIMURIUM, Strain/Indicator: TA98, Metabolic Activation: RAT, LIVER, S-9, AROCLOR 1254 (10%), Method: PREINCUBATION). Further, the mutagenic call is “active; positive” (Test System: AMES SALMONELLA TYPHIMURIUM, Strain/Indicator: TA98, Metabolic Activation: RAT, LIVER, S-9, AROCLOR 1254, Method: PREINCUBATION); “inactive; negative” (Test System: AMES SALMONELLA TYPHIMURIUM, Strain/Indicator: TA98, Metabolic Activation: RAT, LIVER, S-9, AROCLOR 1254, Method: STANDARD PLATE); “inactive; negative” (Test System: AMES SALMONELLA TYPHIMURIUM, Strain/Indicator: TA100, Metabolic Activation: HAMSTER, LIVER, S-9, AROCLOR 1254 (10%), Method: PREINCUBATION); “inactive; negative” (Test System: AMES SALMONELLA TYPHIMURIUM, Strain/Indicator: TA100, Metabolic Activation: HAMSTER, LIVER, S-9, AROCLOR 1254, Method: PREINCUBATION); “inactive; negative” (Test System: AMES SALMONELLA TYPHIMURIUM, Strain/Indicator: TA100, Metabolic Activation: NONE, Method: PREINCUBATION); “inactive; negative” (Test System: AMES SALMONELLA TYPHIMURIUM, Strain/Indicator: TA100, Metabolic Activation: NONE, Method: STANDARD PLATE). Moreover, the mutagenic call is, setting by setting: (Test System: AMES SALMONELLA TYPHIMURIUM, Strain/Indicator: TA100, Metabolic Activation: RAT, LIVER, S-9, AROCLOR 1254 (10%), Method: PREINCUBATION) “inactive; negative”; under setting [1], “inactive; negative”; (Test System: AMES SALMONELLA TYPHIMURIUM, Strain/Indicator: TA100, Metabolic Activation: RAT, LIVER, S-9, AROCLOR 1254, Method: STANDARD PLATE) “inactive; negative”; (Test System: AMES SALMONELLA TYPHIMURIUM, Strain/Indicator: TA1535, Metabolic Activation: HAMSTER, LIVER, S-9, AROCLOR 1254 (10%), Method: PREINCUBATION) “active; positive”; (Test System: AMES SALMONELLA TYPHIMURIUM, Strain/Indicator: TA1535, Metabolic Activation: HAMSTER, LIVER, S-9, AROCLOR 1254, Method: PREINCUBATION) “active; positive”; (Test System: AMES SALMONELLA TYPHIMURIUM, Strain/Indicator: TA1535, Metabolic Activation: NONE, Method: PREINCUBATION) “inactive; negative”. The mutagenic call reads like this: (Test System: AMES SALMONELLA TYPHIMURIUM, Strain/Indicator: TA1535, Metabolic Activation: NONE, Method: STANDARD PLATE) “inactive; negative”; (Test System: AMES SALMONELLA TYPHIMURIUM, Strain/Indicator: TA1535, Metabolic Activation: RAT, LIVER, S-9, AROCLOR 1254 (10%), Method: PREINCUBATION) “active; positive”; (Test System: AMES SALMONELLA TYPHIMURIUM, Strain/Indicator: TA1535, Metabolic Activation: RAT, LIVER, S-9, AROCLOR 1254, Method: PREINCUBATION) “active; positive”; (Test System: AMES SALMONELLA TYPHIMURIUM, Strain/Indicator: TA1535, Metabolic Activation: RAT, LIVER, S-9, AROCLOR 1254, Method: STANDARD PLATE) “inactive; negative”; (Test System: AMES SALMONELLA TYPHIMURIUM, Strain/Indicator: TA1537, Metabolic Activation: NONE, Method: STANDARD PLATE) “active; positive”; (Test System: AMES SALMONELLA TYPHIMURIUM, Strain/Indicator: TA1538, Metabolic Activation: RAT, LIVER, S-9, AROCLOR 1254, Method: STANDARD PLATE) “inactive; negative”. Besides, the mutagenic call (Test System: MOUSE LYMPHOMA, Strain/Indicator: L5178Y (TK+/TK-), Metabolic Activation: NONE, Method: SUSPENSION/PLATE) was “active; positive”.
